Reference: US5001142A, “1-substituted-2-(3-amino-1-propynyl)pyrrolidine derivatives” (American Cyanamid Company, priority 1989, dated 1991)
Structures can show the parent of a compound that is named as a salt.

Legend:
[1] = target: muscarinic cholinergic receptor; assay: [^3 H]-Cis-methyldioxolane (^3 H-CD) Binding Assay (High Affinity); conditions: rat cerebral cortex, ^3 H-CD 1.0 nM, 25° C., 120 minutes, pH 7.4, high affinity agonist conformation
[2] = target: muscarinic cholinergic receptor; assay: [^3 H] Quinuclidinyl Benzilate (^3 H-QNB) Binding Assay; conditions: rat cerebral cortex, ^3 H-QNB 0.25 nM, 25° C., 120 minutes, pH 7.4
[3] = test system: muscarinic sites; conditions: cited from earlier work
[4] = test system: postsynaptic cholinergic; conditions: should mimic the effects of acetylcholine; cited from earlier work
[5] = test system: presynaptic cholinergic; conditions: should disinhibit the release of endogenous acetylcholine; cited from earlier work
[6] = test system: SDAT patients; conditions: compared to the anticholinesterase inhibitor physostigmine; cited from earlier work
[7] = test system: aged monkey; conditions: aged monkeys; cited from earlier work

Row | IC50 [1] | IC50 [2] | SMILES | further results
1 |  |  | CS(=O)(=O)N1CCC[C@@H]1C#CCN1CCCC1 [(R)-1-(Methylsulfonyl)-2-[3-(1-pyrrolidinyl)-1-propynyl]pyrrolidine, hydrochloride] | IC50 ([1]; hydrochloride): 2.45 µM; IC50 ([2]; hydrochloride): 25 µM
2 | 0.973 µM | 23 µM | CS(=O)(=O)N1CCC[C@@H]1C#CCN1CCCC1 [(R)-1-(Methylsulfonyl)-2-[3-(1-pyrrolidinyl)-1-propynyl]pyrrolidine] | 
3 | 0.78 µM | 8.8 µM | CC(=O)N1CCC[C@@H]1C#CCN1CCCC1 [(R)-1-Acetyl-2-[3-(1-pyrrolidinyl)-1-propynyl]pyrrolidine] | 
4 |  |  | C(#C[C@H]1CCCN1)CN1CCCC1 [(R)-1-[3-(2-Pyrrolidinyl)-2-propynyl] pyrrolidine, dihydrochloride] | IC50 ([1]; dihydrochloride): 0.742 µM; IC50 ([2]; dihydrochloride): 2.7 µM
5 | 0.514 µM | 3.1 µM | C(#C[C@H]1CCCN1)CN1CCCC1 [(R)-1-[3-(2-Pyrrolidinyl)-2-propynyl]pyrrolidine] | 
6 | 3.58 µM | 34 µM | O=CN1CCC[C@@H]1C#CCN1CCCC1 [(R)-2-(3-(1-Pyrrolidinyl)-1-propynyl]-1-pyrrolidine-carboxaldehyde] | 
7 |  |  | O=C(N1CCC[C@@H]1C#CCN1CCCC1)C(F)(F)F [(R)-2-[3-(1-Pyrrolidinyl)-1-propynyl]-1-(trifluoroacetyl)pyrrolidine, dihydrochloride] | IC50 ([1]; dihydrochloride): 8.57 µM; IC50 ([2]; dihydrochloride): 43 µM
8 | 2.58 µM | 40 µM | O=C(N1CCC[C@@H]1C#CCN1CCCC1)C(F)(F)F [(R)-2-[3-(1-Pyrrolidinyl)-1-propynyl]-1-(trifluoroacetyl)pyrrolidine] | 
9 | 0.029 µM | 6.5 µM | CC(C)(C)OC(=O)N1CCC[C@@H]1C#CCN1CCCC1 [(R)-2-[3-(1-Pyrrolidinyl)-1-propynyl]-1-pyrrolidine-carboxylic acid, 1,1-dimethylethyl ester] | 
10 |  |  | CS(=O)(=O)N1CCC[C@H]1C#CCN1CCCC1 [(S)-1-(Methylsulfonyl)-2-[3-(1-pyrrolidinyl)-1propynyl]pyrrolidine, hydrochloride] | IC50 ([1]; hydrochloride): 8.08 µM; IC50 ([2]; hydrochloride): 47 µM
11 | 6.78 µM | 43 µM | CS(=O)(=O)N1CCC[C@H]1C#CCN1CCCC1 [(S)-1-(Methylsulfonyl)-2-[3-(1-pyrrolidinyl]-1-propynyl]pyrrolidine] | 
12 |  |  | CC(=O)N1CCC[C@H]1C#CCN1CCCC1 [(S)-1-Acetyl-2-[3-(1-pyrrolidinyl)-1-propynly]-pyrrolidine, hydrochloride] | IC50 ([1]; hydrochloride): 3.26 µM; IC50 ([2]; hydrochloride): 73 µM
13 | 2.71 µM | 76 µM | CC(=O)N1CCC[C@H]1C#CCN1CCCC1 [(S)-1-Acetyl-2-[3-(1-pyrrolidinyl)-1-propynyl]pyrrolidine] | 
14 |  |  | O=CN1CCC[C@H]1C#CCN1CCCC1 [(S)-2-[3-(1-Pyrrolidinyl)-1-propynyl]1-pyrrolidine-carboxaldehyde, hydrochloride] | IC50 ([1]; hydrochloride): 11.1 µM; IC50 ([2]; hydrochloride): 88 µM
15 | 0.247 µM | 4.2 µM | CC(C)(C)OC(=O)N1CCC[C@H]1C#CCN1CCCC1 [(S)-2-[3-(1-Pyrrolidinyl)-1-propynyl]1-pyrrolidine-carboxylic acid, 1,1-dimethylethyl ester] | 
16 |  |  | O=C(N1CCC[C@H]1C#CCN1CCCC1)C(F)(F)F [(S)-2-[3-(1-Pyrrolidinyl)-1-propynyl]1-trifluoroacetyl) pyrrolidine, hydrochloride] | IC50 ([1]; hydrochloride): 3.83 µM; IC50 ([2]; hydrochloride): 16 µM
17 | 5.47 µM | 18 µM | O=C(N1CCC[C@H]1C#CCN1CCCC1)C(F)(F)F [(S)-2-[3-(1-Pyrrolidinyl)-1-propynyl]-1-(trifluoroacetyl)pyrrolidine] | 
18 | 5.24 µM | 65 µM | O=CN1CCC[C@H]1C#CCN1CCCC1 [(S)-2-[3-(1-Pyrrolidinyl)-1-propynyl]-1-pyrrolidinecarboxaldehyde] | 
19 |  |  | CC(=O)N(C)C(C)C#CCN1CCCC1 (stereo not drawn) [BM-5, N-methyl-N-(1-methyl-4-pyrrolidino-2-butynyl)acetamide] | antagonist/agonist action at muscarinic sites [3]: antagonist at some muscarinic sites while being an agonist at most others; postsynaptic cholinergic action [4]: postsynaptic partial cholinergic agonist; presynaptic cholinergic action [5]: presynaptic cholinergic antagonist
20 |  |  | COC(=O)C1=CCCN(C)C1 [arecoline] | improvement in SDAT patients compared to physostigmine [6]: more-consistent improvement; improvement in performance [7]: significant improvement in performance
21 |  |  | O=C1CCCN1CC#CCN1CCCC1 [oxotremorine] | improvement in performance [7]: significant improvement in performance
